The values below are quoted from earlier work in paper PMC10597649, “Effect of Astragali radix extract on pharmacokinetic behavior of dapagliflozin in healthy and type 2 diabetic rats” (Frontiers in Pharmacology, 2023).

The data set relates to P-gp. The arrangement: method as in Huang et al., 2012. As to conditions: ref Huang et al., 2012; cited from earlier work.

`CC(=O)O[C@H]1[C@H](O[C@H]2CC[C@]34C[C@]35CC[C@]3(C)[C@@H]([C@@]6(C)CC[C@@H](C(C)(C)O)O6)[C@@H](O)C[C@@]3(C)[C@@H]5C[C@H](O[C@@H]3O[C@H](CO)[C@@H](O)[C@H](O)[C@H]3O)[C@H]4C2(C)C)OC[C@@H](O)[C@@H]1O` [Astragaloside II]: the P-gp inhibition result is “potent P-gp inhibitor”.
